Data from US20120148857A1, “Treated wood and methods of treatment” (priority 2010, published 2012).
Read-outs that look alike come from different tables or passages of the source.

Tests used:
[1] = Excerpt: Knowing the molecular weight of the product, it was possible to calculate how many moles of water were hydrated. It was thus possible to calculate the molar content of a saturated solution of the particular zinc salt, and thus to determine if is was sufficiently soluble at a low but possible processing temperature for an unheated preservative-treatment facility. […] Ten grams of the clear solution was dried overnight in a 70 C oven. […] Water has a molecular weight of 18.
The anhydrous foamed salt was crushed and added back to the solution, as crystallization seeding.
The washed precipitates were dried to constant weight in a 70 C oven.

[2] = from the CRC listed solubility
Text: Following is a listing of candidate zinc salts with the properties found in the CRC handbook, 65th edition, and their stated solubilities at various temperatures, and molecular weights. The Name in each case is followed by CRC listed solubilities at stated temperatures, Molecular weight, and Molarity of saturated solution.

[3] = pH test of impregnating solution with Hydrion test paper; settings: 0.2 molar solution
Text: It was then allowed to float in a 0.2 molar sodium metaborate solution, absorbing it by capillary wicking. After six hours the upper surface was damp.

[4] = pH measurement of aqueous solutions with ion-sensitive FET pH meter; assay type: physicochemical; settings: water
Text: Time was allowed for the pH reading to equilibrate after each addition. This typically took ten to thirty seconds, and increased noticeably with further additions. An Ion-Sensitive FET pH meter was used. The meter was calibrated before and after each measurement series with pH 7.0 buffer solution, and the readings corrected for any meter drift observed. The pH measurements were graphed.
Five milliliters of a solution of pH 4.1 contains about 10^−4 moles H^+ per liter times 5/1000=5×10^−7 moles H^+. Fifteen mL of a solution of pH 7.5 contains 15/1000×10^−75 moles of H^+, or about 10^−9.3 moles H^+. Twenty milliliters of a solution of pH 6.9 contains 20/1000×10^−6.9 moles of H+, or about 10^−8.7 moles of H+.

For `O=C([O-])c1ccccc1.O=C([O-])c1ccccc1.[Zn+2]` [Zinc benzoate], the “Molarity of saturated solution” value [1] was “mol/L 0.0117”.
In the case of `O=C([O-])CC(O)C(=O)[O-].[Zn+2]` (stereo not drawn) [Zinc malate], the “Molarity of saturated solution” value [1] is reported as “mol/L 0.071”, the “Molarity of the saturated solution” value [1] is reported as 0.133 M and the “Solubility (laboratory measurement)” value [1] is reported as “Zinc malate 1.4 g/100 ml@16 C”.
With `O.O.O.O.O.O.O.O.O=S(=O)([O-])c1ccc(O)cc1.O=S(=O)([O-])c1ccc(O)cc1.[Zn+2]` [Zinc phenol-sulfonate octahydrate] the “Molarity of saturated solution” value [2] was “mol/L 1.12”.
In the case of `O=B[O-].[Na+]` [sodium metaborate], the “pH of solution by Hydrion test paper” value [3] is reported as 10-11 pH.
For (ZnO) (B2O3)2, the “pH of a saturated solution” value [4] was 6.7.
For Zinc Valerate dihydrate, the “Molarity of saturated solution” value [2] was “mol/L 0.085”.
For Zinc mandelate, the “Molarity of saturated solution” value ([1]; from the laboratory solubility (10-16 C)) was “mol/L 0.010” and the “Solubility (laboratory measurement)” value ([1]; water, 14 C) was “Zinc mandelate 0.38 g/100 ml@14 C”.
In the case of Zinc sorbate, the Solubility in words [1] is reported as “so little solubility even in hot water”.
For “zinc borate [zinc borate furnished by City Chemical, reference compound]”, the “pH of a saturated solution” value [4] was 6.7.
